# Target: T1, human recombinant renin (Homo sapiens, UniProt P00797)
# T1 sequence (P00797 67-406): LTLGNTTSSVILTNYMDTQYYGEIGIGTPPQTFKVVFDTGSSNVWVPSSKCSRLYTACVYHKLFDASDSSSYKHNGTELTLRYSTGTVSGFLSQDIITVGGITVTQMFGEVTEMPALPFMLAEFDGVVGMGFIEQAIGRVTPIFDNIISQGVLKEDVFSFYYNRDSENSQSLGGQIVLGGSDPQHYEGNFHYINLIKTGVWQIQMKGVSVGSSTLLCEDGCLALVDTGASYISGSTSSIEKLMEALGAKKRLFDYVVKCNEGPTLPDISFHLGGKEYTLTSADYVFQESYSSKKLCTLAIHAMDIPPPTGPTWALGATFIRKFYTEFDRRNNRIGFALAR
# Assay: Inhibition of human recombinant renin (enzymatic in vitro assay, Ang I detected by EIA)
# Assay type: biochemical
# Conditions: human recombinant renin 0.16 ng/mL, synthetic human angiotensin(1-14) 0.5 μM, 37° C. for 3 h
# Description: Inhibition of Human Recombinant Renin by the Compounds of the Invention The enzymatic in vitro assay was performed in 384-well polypropylene plates (Nunc). The assay buffer consisted of 10 mM PBS (Gibco BRL) including 1 mM EDTA and 0.1% BSA. The incubates were composed of 50 μL per well of an enzyme mix and 2.5 μL of renin inhibitors in DMSO. The enzyme mix was premixed at 4° C. and consists of the following components: • human recombinant renin (0.16 ng/mL) * synthetic human angiotensin(1-14) (0.5 μM) • hydroxyquinoline sulfate (1 mM) The mixtures were then incubated at 37° C. for 3 h. To determine the enzymatic activity and its inhibition, the accumulated Ang I was detected by an enzyme immunoassay (EIA) in 384-well plates (Nunc). 5 μL of the incubates or standards were transferred to immuno plates which were previously coated with a covalent complex of Ang I and bovine serum albumin (Ang I—BSA). 75 μL of Ang I-antibodies in essaybuffer above including 0.01% Tween 20 were added and a primary incubation made at 4° C. overnight. The plates were washed 3 times with PBS including 0.01% Tween 20, and then incubated for 2 h at rt with an antirabbit-peroxidase coupled antibody (WA 934, Amersham).
row,IC50 [nM],Structure (SMILES)
1,1.16,"Cc1c(CN(C(=O)C2=C(c3ccc(CCCOc4c(F)ccc(F)c4Cl)cc3)C[C@@H]3CNC[C@H]2N3)C2CC2)ccnc1OCCCO (racemic) [Example 1, (rac.)-(1R*, 5S*)-7-{4-[3-(2-Chloro-3,6-difluorophenoxy)propyl]phenyl}-3,9-diazabicyclo[3.3.1]non-6-ene-6-carboxylic Acid Cyclopropyl-[2-(3-hydroxy-propoxy)-3-methylpyridin-4-ylmethyl]amide]"
2,0.49,"Cc1cc(Cl)c(OCCOc2ccc(C3=C(C(=O)N(Cc4ccnc(OCCCO)c4C)C4CC4)[C@H]4CNC[C@@H](C3)N4)cc2)c(Cl)c1 (racemic) [Example 2, (rac.)-(1R*, 5S*)-7-{4-[2-(2,6-Dichloro-4-methylphenoxy)ethoxy]phenyl}-3,9-diazabicyclo[3.3.1]non-6-ene-6-carboxylic Acid Cyclopropyl-[2-(3-hydroxy-propoxy)-3-methylpyridin-4-ylmethyl]amide]"
3,0.82,"Cc1c(CN(C(=O)C2=C(c3ccc(CCCOc4c(F)ccc(F)c4Cl)cc3)C[C@@H]3CNC[C@H]2N3)C2CC2)ccnc1OCCO (racemic) [Example 3, (rac.)-(1R*, 5S*)-7-{4-[3-(2-Chloro-3,6-difluorophenoxy)propyl]phenyl}-3,9-diazabicyclo[3.3.1]non-6-ene-6-carboxylic Acid Cyclopropyl-[2-(2-hydroxy-ethoxy)-3-methylpyridin-4-ylmethyl]amide]"
4,1.43,"Cc1cc(Cl)c(OCCOc2ccc(C3=C(C(=O)N(Cc4ccnc(OCCO)c4C)C4CC4)[C@H]4CNC[C@@H](C3)N4)cc2)c(Cl)c1 (racemic) [Example 4, (rac.)-(1R*, 5S*)-7-{4-[2-(2,6-Dichloro-4-methylphenoxy)ethoxy]phenyl}-3,9-diazabicyclo[3.3.1]non-6-ene-6-carboxylic Acid Cyclopropyl-[2-(2-hydroxy-ethoxy)-3-methylpyridin-4-ylmethyl]amide]"

# Source: US20070142363A1, “Novel diazabicyclonene derivatives and use thereof” (ACTELION PHARMACEUTICALS LTD, priority 2003, published 2007)
